Source: ChEMBL document CHEMBL1157865, “Synthesis and evaluation of SQ109 analogues as potential anti-tuberculosis candidates” (2010)
Converted amounts (≈) assume the structure as drawn.

System: Mycobacterium tuberculosis
Test: Antimycobacterial activity against multidrug-resistant Mycobacterium tuberculosis XDR 173 by BACTEC 460 radiometric method
Assay type: functional

| Structure (SMILES) | MIC |
| --- | --- |
| CC(C)=CCC/C(C)=C/CC/C(C)=C/CNCCNC1C2CC3CC(C2)CC1C3 (centres undefined) | 0.25 µM (≈ 0.0997 µg/mL) |
| CC(C)CCCC(C)CCCC(C)CCNCCNC1C2CC3CC(C2)CC1C3 (centres undefined) | 1 µM (≈ 0.405 µg/mL) |
| CC(C)CCCC(C)CCNCCNC12CC3CC(CC(C3)C1)C2 (centres undefined) | 0.5 µM (≈ 0.167 µg/mL) |
| CC(C)=CCC/C(C)=C/CNCCNC1C2CC3CC(C2)CC1C3 (centres undefined) [SQ109] | 0.5 µM (≈ 0.165 µg/mL) |
